Laboratory results taken from PMC6452685, “Lysyl-tRNA synthetase as a drug target in malaria and cryptosporidiosis” (Proceedings of the National Academy of Sciences of the …, 2019).
pEC50, pIC50: −log10 of the molar value. Read-outs that look alike come from different tables or passages of the source.

Legend:
[1] = tested on: PfKRS1; conditions: cited from earlier work
[2] = molecular target: T1, CYP2C9 (Homo sapiens, UniProt P11712); test: Fluorescence-based CYP inhibition, CYP2C9; assay type: in vitro ADME
T1 construct: purchased Cypex, Dundee, UK; host or cells: bacterial membranes (bactosomes)
T1 sequence (P11712 whole entry): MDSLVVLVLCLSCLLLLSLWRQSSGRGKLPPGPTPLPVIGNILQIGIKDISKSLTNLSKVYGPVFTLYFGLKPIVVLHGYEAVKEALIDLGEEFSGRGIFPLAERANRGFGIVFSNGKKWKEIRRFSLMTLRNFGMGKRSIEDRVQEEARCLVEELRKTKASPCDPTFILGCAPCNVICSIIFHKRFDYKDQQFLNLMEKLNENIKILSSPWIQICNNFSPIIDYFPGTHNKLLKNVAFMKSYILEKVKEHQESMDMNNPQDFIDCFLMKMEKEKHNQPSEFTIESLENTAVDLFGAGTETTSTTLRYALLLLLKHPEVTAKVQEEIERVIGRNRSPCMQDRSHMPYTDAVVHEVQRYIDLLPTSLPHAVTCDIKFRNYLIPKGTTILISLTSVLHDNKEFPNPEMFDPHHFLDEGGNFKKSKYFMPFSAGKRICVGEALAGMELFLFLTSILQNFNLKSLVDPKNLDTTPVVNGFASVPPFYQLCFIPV
Experimental: (§1) 4.7 F lu or e s ce nce-based CYP I nhibition usin g recombinantly expressed CYP b actosomes Fl uorogeni c C YP i nhi bi t i on s t udi es w ere c ondu ct ed at 37 °C i n 96-well, flat-bot t om, cl ear p ol y s t y rene pl at es. I ncubat i on mi xt ures cont ai ni ng Eas y C YP bact os omes (1000 pmol /ml , 10 mg /ml C y pex TM, Dundee, UK), fl uorogeni c substrate (Cypex TM) and 50 mM potas s i um phosphat e buffer (p H 7. 4) w er e prepared at t he fol l ow i ng fi nal concent rat i ons : C YP1A2, 5 pmol /ml + 35 µ M et hox y res orufi n (ER) ; CYP2C9, 10 pm ol/ml + 30 µM 7-methoxy-4-(tri fl uo romethy l )-coumari n (MFC ); C YP 2C 19, 5 pm ol /ml + 25 µM 3-cy ano-7-eth oxycoumarin (CEC); C YP 2D 6, 10 pmol /ml + 6 µM 7-meth oxy-4-(ami nomethy l )- coumari n (MAMC ); C YP 3A4, 10 pmol /ml + 1 µM diethoxyfluorescein (DEF) and 10 pmol /ml + 15 µM 7-benz y l ox y qui nol i ne (BQ ). […] 0125 ( 1A2 and 2C 9 onl y ) o r 0. 025 mg /ml (al l ot her i s oforms ). […] Positive control inhibitor, miconazole, was prepared as a 500 µM s olution in DMSO and similarly diluted.
(§2) For eac h i sofo rm, 2 20 µl of i ncubati on mi x was added to each wel l of a 96-well, flat-bot t om, cl ear pol y s t y rene pl at e. Al i quot s (5 µl) of each compound 5 conce ntrati on was then mi x ed wi th 220 µl of the incubation mix and pre-incubated at 37 °C for 5 min (final test compound concentration range: […]

[3] = molecular target: T2, CYP1A2 (Homo sapiens, UniProt P05177); test: Fluorescence-based CYP inhibition, CYP1A2; assay type: in vitro ADME
T2 construct: purchased Cypex, Dundee, UK; host or cells: bacterial membranes (bactosomes)
T2 sequence (P05177 whole entry): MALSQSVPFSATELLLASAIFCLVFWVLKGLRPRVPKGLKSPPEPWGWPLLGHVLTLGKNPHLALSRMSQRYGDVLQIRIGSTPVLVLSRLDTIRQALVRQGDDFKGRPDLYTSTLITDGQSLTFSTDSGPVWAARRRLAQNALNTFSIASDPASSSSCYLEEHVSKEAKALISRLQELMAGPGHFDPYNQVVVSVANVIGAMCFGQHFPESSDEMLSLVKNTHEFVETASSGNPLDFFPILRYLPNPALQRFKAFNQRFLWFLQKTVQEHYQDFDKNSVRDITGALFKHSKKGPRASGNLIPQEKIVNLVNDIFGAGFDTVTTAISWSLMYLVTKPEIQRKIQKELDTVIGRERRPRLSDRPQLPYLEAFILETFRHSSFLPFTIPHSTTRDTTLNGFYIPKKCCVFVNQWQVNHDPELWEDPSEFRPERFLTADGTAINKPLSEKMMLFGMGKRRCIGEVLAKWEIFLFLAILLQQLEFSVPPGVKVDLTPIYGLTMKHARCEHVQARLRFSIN
Experimental: as §1, §2

[4] = tested on: P. vivax liver schizonts/hypnozoites; test: P. vivax liver schizonts/hypnozoites (prophylactic mode); assay type: cell-based; conditions: Plasmodium vivax
Experimental: (§3) Thi s i s bas ed on met hods prev i ous l y report ed (12 ). In bri ef, HepG 2-A1 6-CD81EGFP cel l s were cul tured at 3 7 °C i n 5% C O2 in DMEM me dia. For both P. berghei-Luc and HepG2 cytotoxi ci ty assays, 3x 10**3 of the HepG2-A16-CD81EGFP20 cells in 5 µl of assay medi um (DMEM wi thout Phenol Red (Li fe Techn ol ogi es, CA), 5% FBS, and 5x Pen Stre p Gl utami ne (Li fe Techn ol ogi es, CA)) at concentrati o n 6x 10**5 cel l s /ml were s eeded i n white s oli d bottom 153 6-well pl at es (cus t om G NF mol d ref# 7891 73-F, Grei ner Bi o-One), 2 0-26 h prior to sporozoites infection. […]
(§4) pri or t o i nfect i on 5 0 nl of comp ounds i n 1:3 s eri al di l ut i ons in DMSO (0. 5% fi nal DMSO concentrati on per w el l ) w ere t rans ferred w i t h an Acous ti c Trans fer Sy s t em (ATS) (Bi os ero) t o the cells. Atovaquone (5µ M) and pu romy ci n (1 0 µM) at a single concentration were used as pos i t i v e cont rol s for the Pbluc and He pG 2tox , res pecti v el y . 0. 5% DMSO was us ed as neg ati v e control for both as s ay s . […]
(§5) […] Immediately after addition of the luminescence reagent, the luminescence was measured by the Env i s i on M ul t il abel Reader (Perk i nEl mer). […]
(§6) Thi s is a modification of the previously reported method (13). […]

[5] = tested on: P. berghei liver schizonts; test: P. berghei liver schizonts (luciferase); assay type: cell-based; conditions: Plasmodium berghei
Experimental: as §3, §4, §5, §6

| SMILES | selectivity for cytosolic PfKRS1 compared with HsKRS [1] [fold] | pIC50 [2] | pIC50 [3] | pEC50 ([4]; hypnozoites, read-out: P. vivax hypnozoites EC50 (prophylactic mode)) | pEC50 ([4]; liver schizonts, read-out: P. vivax liver schizonts EC50 (prophylactic mode)) | pEC50 [5] |
| --- | --- | --- | --- | --- | --- | --- |
| C[C@H]1CCC[C@H](C[C@H]2Cc3cc(O)cc(O)c3C(=O)O2)O1 [Compound 1, cladosporin, reference compound] | > 100 | – | – | – | – | – |
| O=C(NCC1(O)CCC(F)(F)CC1)c1cc(=O)c2cc(F)ccc2o1 [Compound 5] | – | < 5.00 | < 5.00 | < 5.00 | 6.02 | 6.05 |
